The values that follow come from patent US20160024249A1, “Temperature-Responsive Polymer Compositions and Methods of Use” (Vanderbilt University, priority 2014, published 2016).

Data set [1] concerns mouse aortic endothelial cells (mAECs). The data set is described as follows: Gene expression by quantitative RT-PCR. The class given is cell-based. The conditions noted are these: 75 mg/mL peptide, 72 h. The method, then:
(§1) Cell Culture: RAW 264.7 macrophages (ATCC) were cultured in DMEM (Gibco) supplemented with 10% FBS and 1% penicillin/strepto-mycin. Mouse aortic endothelial cells (mAECs) were a generous gift from Dr. Ambra Pozzi at Vanderbilt University Medical Center. mAECs were cultured in EGM-2 Basal Media supplemented with BulletKit (Lonza, Allendale, N.J.) and 10 units/mLIFN-g (Sigma). RAW 264.7 mouse macrophage cells (Sigma) were cultured in DMEM with 10% FBS and 1% penicillin/streptomycin. For cell culture studies with peptides, 75 mg/mL of Ac-SDKP or C16 peptides was used. For inhibition studies, 5 mM of MMP-9 inhibitor-1 (CTK8G1150; AG-L-66085, Santa Cruz Biotechnology, Dallas, Tex.) or 5 mg/mL of LEAF Purified Mouse TNF-a antibody (BioLegend) was used.
Gene expression: mAECs or RAW 264.7 cells were seeded at a density of 3×10^5 cells/mL on TCPS with 75 mg/mL of Ac-SDKP, C16, or the combination of C16 and Ac-SDKP peptides. After 3 days, RNA was extracted from […] using Trizol reagent and RNA easy columns. After dissolving RNA in RNase-free water, the concentration and purity of isolated RNA was measured using TECAN plate reader Nanoquant (company info). At least […] of RNA was reverse transcribed using iScriptReverse transcription Supermix for RT-qPCR on a BioRad thermocycler (company info). 50 ng/well cDNA was then amplified using SYBR green Supermix and fluorescence signal was measured on a BioRAD real time PCR machine. TGF-b1 forward: […], reverse: […]. NF-kb forward: […]-CACAGA, reverse: […]. TIMP1 forward: […], reverse: […]-CACA. FGF-1 forward: […], reverse: […]. FGF-2: MMP-9: […]-CAATCC, reverse: […]. MMP-2 forward: […], reverse: […]. TNF-a: forward: […], reverse: AGA-[…]. VEGF forward: […]-CACCA, reverse: […]. GAPDH forward: […], reverse: […]. TIMP-2 forward: […], reverse: CACGCG-[…]. Expression was calculated using the […] and normalized to GAPDH expression (n=8).

Data set [2] relates to RAW 264.7 macrophages. As to the kind of experiment: Gene expression by quantitative RT-PCR. Type of data set: cell-based, mouse. The following applies: 75 mg/mL peptide, 72 h. The method, then:
as §1
Gene expression: mAECs or RAW 264.7 cells were seeded at a density of 3×10^5 cells/mL on TCPS with 75 mg/mL of Ac-SDKP, C16, or the combination of C16 and Ac-SDKP peptides. After 3 days, RNA was extracted from […] using Trizol reagent and RNA easy columns. After dissolving RNA in RNase-free water, the concentration and purity of isolated RNA was measured using TECAN plate reader Nanoquant (company info). […] 50 ng/well cDNA was then amplified using SYBR green Supermix and fluorescence signal was measured on a BioRAD real time PCR machine. […] Expression was calculated using the […] and normalized to GAPDH expression (n=8).

The test system of data set [3] is mouse model of hind limb ischemia. As to the kind of experiment: Laser Doppler perfusion imaging (LDPI) of perfusion recovery. The class given is in vivo, A/J mice. The conditions noted are these: peptide-loaded microgels, 14 day time course. The method, then:
Mouse model of hind limb ischemia: Wild type A/J mice were used to develop a model of PAD as described previously, by ligating the femoral artery and vein at one ligation below the epigastric artery and a second ligation around the artery and vein at a distal location just proximal to the deep femoral branch. The femoral artery and vein were then cut between these two sutures. A 13% by weight solution of injectable polymers in H2O 2O was mixed with 75 mg Ac-SDKP, C16, or the combination of Ac-SDKP and C16 at 25° C. In order to control the hydrogel size considering the possibility that the hydrogel size may change peptide release and therefore inflammatory responses a single, 10 mL bulk injection or ten, 1 mL injections of peptide-loaded polymer were made into the thigh muscle adjacent to the femoral artery ligations. The surgical incision was then closed with non-degradable sutures. […]
LDPI: LDPI was performed on the footpad region of the hind limb of the mice using a Periscan PIM II device. […] The perfusion ratio was calculated by normalizing the average perfusion value of the ischemic footpad (right) to the average perfusion value of the control, un-operated footpad (left) using Image J (NIH).

Data set [4] shares this test system. As to the kind of experiment: Fluorescence microangiography (vessel perfusion capacity). Type of data set: in vivo, A/J mice. The method, then:
(§2) Mouse model of hind limb ischemia: Wild type A/J mice were used to develop a model of PAD as described previously, by ligating the femoral artery and vein at one ligation below the epigastric artery and a second ligation around the artery and vein at a distal location just proximal to the deep femoral branch. The femoral artery and vein were then cut between these two sutures. A 13% by weight solution of injectable polymers in H2O 2O was mixed with 75 mg Ac-SDKP, C16, or the combination of Ac-SDKP and C16 at 25° C. In order to control the hydrogel size considering the possibility that the hydrogel size may change peptide release and therefore inflammatory responses a single, 10 mL bulk injection or ten, 1 mL injections of peptide-loaded polymer were made into the thigh muscle adjacent to the femoral artery ligations. The surgical incision was then closed with non-degradable sutures. As controls, femoral artery ligation surgery was performed on animals without any microgels or peptide treatment or with peptide in PBS injections into the subcutaneous tissue adjacent to femoral artery ligations. The left hind limb (unoperated) was also used as a surgical control.
Angiogenesis and phagocytosis assays: Fourteen days after femoral artery ligation, mice were sacrificed and tissue and microgels were harvested for analysis. Immediately before sacrificing the mice, functional fluorescence micro-angiography was performed to visualize angiogenesis in and around peptide-loaded microgels, as described previously. As a result of fluorescence microangiography, only the functional capillaries with a perfusion capacity, including those around injected micro-gels, show red fluorescence in the mouse body. Excised tissue from the site of microgel injections was imaged using an Olympus FV100 confocal microscope. For quantification of vessel perfusion capacity, the red fluorescence intensity was quantified using Image J software (n=6 images per mouse, n=6 mice per treatment).

Data set [5] relates to mouse aortic endothelial cells (mAECs). The data set is described as follows: MMP-9 activity by zymography. The class given is cell-based. The conditions noted are these: 72 h, peptides 75 mg/mL, MMP-9 inhibitors 5 mM, TNF-a antibodies 5 mg/mL. The method, then: as §1
MMP-9 activity: After 72 h culture in serum-free media, culture media from mAECs or RAW 264.7 cells (3×10^5 cells/mL, with/without peptides or TNF-a/MMP-9 inhibitors) was collected, concentrated, and analyzed by zymography, as described previously. Concentrated protein samples were incubated with non-reducing buffer at a ratio of 1:1. […] total protein per lane were loaded onto a 7.5% polyacrylamide gel containing 0.1%(w/v) gelatin (Sigma). Gels were washed in dH2O containing 3.3% (v/v) Triton X-100, followed by […] incubation in reaction buffer at 37 C. After incubation, gels were placed in fixative (30% methanol, 10% acetic acid, and 60% dH2O) for 1 h before staining with 4 parts Coomassie brilliant blue R-250 (Sigma) and 1 part methanol for 12 h. Gels were destained in 25% methanol for 1 h. The gelatinolytic activity of pro-MMP-9 was determined by densitometry of the 97 KDa white band on a blue background using Image J(n=4 per treatment). MMP-9 expression was then normalized to the expression from the no inhibitor, no peptide treated group.

Data set [6] shares this test system. As to the kind of experiment: Tubulogenesis on growth factor reduced Matrigel. The following applies: mAECs on Matrigel for 6 h. The class given is cell-based. The method, then: as §1
Tubulogenesis: mAECs (3×10^5 cells/mL) were cultured on growth factor reduced Matrigel ([…], BD Biosciences) for 6 h before imaging for tube formation using a Nikon Eclipse Ti microscope (n=4 per treatment).

Data set [7] deals with mouse model of hind limb ischemia. The data set is described as follows: Histological analysis of inflammation (H&E, F4/80 macrophage infiltration). Type of data set: in vivo, A/J mice. The following applies: multiple 1 mL microgel injections.
Excerpt: Mouse model of hind limb ischemia: Wild type A/J mice were used to develop a model of PAD as described previously, by ligating the femoral artery and vein at one ligation below the epigastric artery and a second ligation around the artery and vein at a distal location just proximal to the deep femoral branch. The femoral artery and vein were then cut between these two sutures. […] In order to control the hydrogel size considering the possibility that the hydrogel size may change peptide release and therefore inflammatory responses a single, 10 mL bulk injection or ten, 1 mL injections of peptide-loaded polymer were made into the thigh muscle adjacent to the femoral artery ligations. The surgical incision was then closed with non-degradable sutures. […]
Histological analysis of angiogenesis and inflammation: After sacrificing mice, ischemic muscle samples were prepared for histological analysis as described elsewhere. […] Immunohistochemical (IHC) staining to identify activated inflammatory cells by F4/80 expression was quantified by normalizing the total F4/80 positive area (indicated by brown staining) to the total cell number (determined by hema-toxylin nuclear staining) using Image J.
Data set [8] concerns RAW 264.7 macrophages. The data set is described as follows: MMP-9 activity by zymography. Type of data set: cell-based, mouse. The following applies: RAW 264.7, 72 h, regardless of TNF-a inhibition. The method, then:
as §1
MMP-9 activity: After 72 h culture in serum-free media, culture media from mAECs or RAW 264.7 cells (3×10^5 cells/mL, with/without peptides or TNF-a/MMP-9 inhibitors) was collected, concentrated, and analyzed by zymography, as described previously. Concentrated protein samples were incubated with non-reducing buffer at a ratio of 1:1. […] total protein per lane were loaded onto a 7.5% polyacrylamide gel containing 0.1%(w/v) gelatin (Sigma). […] The gelatinolytic activity of pro-MMP-9 was determined by densitometry of the 97 KDa white band on a blue background using Image J(n=4 per treatment). […]

Data set [9] relates to mouse model of hind limb ischemia. As to the kind of experiment: Optical coherence tomography (Doppler and speckle-variance OCT) of blood vessels. Type of data set: in vivo, A/J mice. The conditions noted are these: for vessel morphology (speckle-variance OCT volume scans of calf muscle): injectable microgels. The method, then: as §2
Optical coherence tomography: Doppler OCT and speckle-variance OCT were used to non-invasively image blood vessels in the ischemic gastrocnemius muscle of mice on days 1 and 13 after femoral artery ligation, as previously described. […] Doppler OCT cross-sectional scans (B-scans) were used to quantify blood flow changes over time in the hind limb, while volume intensity projections from speckle-variance OCT image volumes (C-scans) presented vessel morphology differences between groups. […] Six Doppler OCT B-scans (4 mm, 800 A-scans, Doppler number of 9) were performed per mouse at each time point and perfusion was quantified by calculating the ratio of the number of blood vessel pixels per scan over the total imaged area per scan (n=6 mice per time point).

The test system is the same in data set [10]. As to the kind of experiment: Vybrant phagocytosis assay in harvested microgels and surrounding tissue. The class given is in vivo, A/J mice. The conditions noted are these: peptide-loaded microgels, day 14.
Excerpt: Mouse model of hind limb ischemia: Wild type A/J mice were used to develop a model of PAD as described previously, by ligating the femoral artery and vein at one ligation below the epigastric artery and a second ligation around the artery and vein at a distal location just proximal to the deep femoral branch. The femoral artery and vein were then cut between these two sutures. […] In order to control the hydrogel size considering the possibility that the hydrogel size may change peptide release and therefore inflammatory responses a single, 10 mL bulk injection or ten, 1 mL injections of peptide-loaded polymer were made into the thigh muscle adjacent to the femoral artery ligations. The surgical incision was then closed with non-degradable sutures. As controls, femoral artery ligation surgery was performed on animals without any microgels or peptide treatment or with peptide in PBS injections into the subcutaneous tissue adjacent to femoral artery ligations. […]
A phagocytosis assay was performed in harvested microgels using Vybrant Phagocytosis Assay kit according to the manufacturer's protocol. Green fluorescence from internalized Escherichia coli particles in excised microgels and surrounding tissue was visualized through confocal imaging. The intensity of green fluorescence in each image was quantified using Image J (n=6 images per mouse, n=6 mice per treatment).
Data set [11] concerns RAW 264.7 macrophages. As to the kind of experiment: TNF-a ELISA of cell culture supernatant. The class given is cell-based, mouse. The following applies: RAW 264.7, 72 h, peptides 75 mg/mL, TNF-a antibodies 5 mg/mL. The method, then:
as §1
ELISA: To verify TNF-a inhibition with antibodies, an ELISA was performed using Mouse TNF-a ELISA MAXTM Deluxe (Biolegend) according to the supplier's protocol. Secreted TNF-a in RAW 264.7 cell culture supernatant was measured by reading absorbance at 450 nm using a TECAN M1000 plate reader and quantified against a standard curve (n=4 per treatment).

No end group written: not given here.

Description for iPSC-CMs: The encapsulation study was performed by mixing cells with polymer solution and gelled at 37° C. After two weeks, live cells were stained by calcein AM (green fluorescence) (g).

“KAFDITYVRLKF [C16, pro-angiogenic peptide]”: in [1], the TIMP-1 expression result was “decreased TIMP-1 expression significantly” and the “TNF-a expression in comparison to no peptide treatment” value is on record as “increased TNF-a expression”. The “TNF-a expression in comparison to no peptide treatment” value in the data set on RAW 264.7 macrophages [2] was “increased TNF-a expression”. In addition, the “higher perfusion compared to microgels without peptides (LDPI)” value in [3] (ischemic/control foot ratio) turned out to be 29%. The “angiogenesis compared to PBS alone” value in data set [4] (PBS injections of peptide, no microgel) was “Slightly increased angiogenesis”. In addition, the “angiogenesis / perfusion capacity increase vs. microgels without peptides” value in data set [4] (microgel-mediated delivery, day 14) is listed as approximately 1.5 fold. For the same compound, the “MMP-9 activity in endothelial cells (zymography)” value (from here on “MMP-9 activity … (zymography)”) in [5] is “augmented MMP-9 activity and tubulogenesis”. Also, the “tubulogenesis (tube formation)” value in [6] was “augmented MMP-9 activity and tubulogenesis”. In [7] (day 14), the “macrophage infiltration, increase compared to no peptide treatment” value is recorded as “two fold”. The “MMP-9 activity compared to macrophages without peptide treatment” value in the data set on RAW 264.7 macrophages [8] is on record as “significantly higher levels of MMP-9 activity”. In addition, the “increase in the total area of vessels (Doppler OCT) compared to Ac-SDKP or no treatment” value in data set [9] (implantable scaffolds, day 1 to day 13) is “greater than two fold”. In data set [9], the “vessel morphology (speckle-variance OCT volume scans of calf muscle)” value is on record as “many vessels with a high degree of branching”. Further, the “phagocytic activity in tissue around microgels” value in data set [10] is “higher phagocytic activity than no peptide controls”.

With “polyethylene glycol-co-poly-8-caprolactone [PEG-PCL]”, the “viability of encapsulated iPSC-CMs (calcein AM)” value in the data set with iPSC-CMs is “maintained their viability”.

Regarding “N-acetyl-Ser-Asp-Lys-Pro (Ac-SDKP) [anti-inflammatory peptide]”, the “TNF-a expression in comparison to no peptide treatment” value (in data set [1]; in the data set with RAW 264.7 macrophages [2]) was “decreased TNF-a expression” throughout. For the same compound, in [1] (normalized to GAPDH), the “MMP-9 expression, decrease compared to no peptide treatment” value is recorded as “over 50%”. Moreover, the “perfusion recovery (LDPI)” value in data set [3] is listed as “did not increase perfusion”. The “angiogenesis in comparison to microgels without peptide loading” value in data set [4] (peptide-loaded microgels, day 14) is recorded as “reduced both responses”. Further, the “MMP-9 activity … (zymography)” value in data set [5] was “diminished”. Also, in data set [6], the “tubulogenesis (tube formation)” value is “diminished”. Also, the “inflammatory / macrophage infiltration in muscle tissue” value in data set [7] (day 14, vs no peptide) is listed as “further decreased inflammatory infiltration”. In addition, the “vessel morphology (speckle-variance OCT volume scans of calf muscle)” value in data set [9] is “few blood vessels with limited branching”. In addition, the “secreted TNF-a (ELISA)” value with RAW 264.7 macrophages [11] is “secreted the least amounts of TNF-a”. Also, in data set [10], the “phagocytic activity in tissue around microgels” value is “reduced both responses”.

For `CCN(CC)Cc1cc(C)c(N(Cc2ccccc2)S(=O)(=O)c2ccc(OC)cc2)c(C(=O)NO)c1` [MMP-9 inhibitor, reference compound], in [5], the “MMP-9 activity … (zymography)” value is on record as “attenuation of MMP-9 activity”. Moreover, the “tubulogenesis (tube formation)” value in [6] is given as “significantly reduced”.
